Active and inactive are the calls of the source. No cut-off for these calls is given here.
Assays:
MGC-803 [1] = experiment: Induction of cell morphological changes in human MGC-803 cells transfected with NEDD8 siRNA at 3 uM measured after 48 hrs by bright field microscopic analysis; assay type: functional, cell-based
MGC-803 [2] = experiment: Antiproliferative activity against human MGC-803 cells assessed as reduction in cell viability by xCELLigence based RTCA analysis; assay type: functional; settings: TDE = time-dependent effect
HGC-27 [3] = experiment: Induction of cell morphological changes in human HGC-27 cells assessed as reduction in cell density at 1 to 9 uM incubated for 48 hrs by calcein-AM/PI staining based fluorescence analysis; assay type: functional; settings: dose 1-9 µM
HGC-27 [4] = experiment: Induction of cell morphological changes in human HGC-27 cells assessed as increase in dead cells by measuring red fluorescence at 1 to 9 uM incubated for 48 hrs by calcein-AM/PI staining based fluorescence analysis; assay type: functional; settings: dose 1-9 µM
MGC-803 [5] = experiment: Induction of cell morphological changes in human MGC-803 cells assessed as reduction in cell density at 3 uM measured after 48 hrs in the presence of NEDDylation inhibitor, MLN4924 by calcein-AM/PI staining based fluorescence analysis; assay type: functional
HGC-27 [6] = experiment: Induction of G2/M phase arrest in human HGC-27 cells assessed as upregulation of p-histone H3 expression at 1 to 9 uM measured after 48 hrs by western blot analysis; assay type: functional, cell-based; settings: dose 1-9 µM
HGC-27 [7] = experiment: Antiproliferative activity against human HGC-27 cells assessed as reduction in cell viability at 3 uM measured every 60 mins for 48 hrs by xCELLigence based RTCA analysis; assay type: functional
HGC-27 [8] = experiment: Induction of cell morphological changes in human HGC-27 cells assessed as increase in dead cells by measuring red fluorescence at 9 uM measured after 48 hrs in the presence of NEDDylation inhibitor, MLN4924 by calcein-AM/PI staining based fluorescence analysis; assay type: functional
MGC-803 [9] = experiment: Induction of cell morphological changes in human MGC-803 cells transfected with NEDD8 siRNA assessed as reduction in cell density at 3 uM measured after 48 hrs by calcein-AM/PI staining based fluorescence analysis; assay type: functional
HGC-27 [10] = experiment: Induction of cell morphological changes in human HGC-27 cells at 9 uM measured after 48 hrs in the presence of NEDDylation inhibitor, MLN4924 by DAPI staining based fluorescence analysis; assay type: functional
HGC-27 [11] = experiment: Induction of G2/M phase arrest in human HGC-27 cells assessed as downregulation of CDK1 protein expression at 1 to 9 uM measured after 48 hrs by western blot analysis; assay type: functional, cell-based; settings: dose 1-9 µM
MGC-803 [12] = experiment: Induction of apoptosis in human MGC-803 cells assessed as down regulation of Mcl-1 protein level at 1 to 3 uM measured after 48 hrs by western blot analysis; assay type: functional, cell-based; settings: dose 1-3 µM

## COc1cc(-c2nc(NC(=O)CSC(=S)N3CCN(C(=O)OC(C)(C)C)CC3)nnc2-c2ccc(C)cc2)cc(OC)c1OC
MGC-803 [1]
  Activity: inactive
MGC-803 [2]
  Activity: Tde
HGC-27 [3]
  Activity: Active
HGC-27 [4]
  Activity: Active
MGC-803 [5]
  Activity: inactive
HGC-27 [6]
  Activity: Active
HGC-27 [7]
  Activity: Active
HGC-27 [8]
  Activity: inactive
MGC-803 [9]
  Activity: inactive
HGC-27 [10]
  Activity: inactive
HGC-27 [11]
  Activity: Active
MGC-803 [12]
  Activity: Active
